{"source": "ChEMBL document CHEMBL5260838", "about": "(J Med Chem, 2019)", "key": {"[1]": {"molecular_target": "Sodium channel protein type 10 subunit alpha (Mus musculus, UniProt Q6QIY3)", "sequence (Q6QIY3 whole entry)": "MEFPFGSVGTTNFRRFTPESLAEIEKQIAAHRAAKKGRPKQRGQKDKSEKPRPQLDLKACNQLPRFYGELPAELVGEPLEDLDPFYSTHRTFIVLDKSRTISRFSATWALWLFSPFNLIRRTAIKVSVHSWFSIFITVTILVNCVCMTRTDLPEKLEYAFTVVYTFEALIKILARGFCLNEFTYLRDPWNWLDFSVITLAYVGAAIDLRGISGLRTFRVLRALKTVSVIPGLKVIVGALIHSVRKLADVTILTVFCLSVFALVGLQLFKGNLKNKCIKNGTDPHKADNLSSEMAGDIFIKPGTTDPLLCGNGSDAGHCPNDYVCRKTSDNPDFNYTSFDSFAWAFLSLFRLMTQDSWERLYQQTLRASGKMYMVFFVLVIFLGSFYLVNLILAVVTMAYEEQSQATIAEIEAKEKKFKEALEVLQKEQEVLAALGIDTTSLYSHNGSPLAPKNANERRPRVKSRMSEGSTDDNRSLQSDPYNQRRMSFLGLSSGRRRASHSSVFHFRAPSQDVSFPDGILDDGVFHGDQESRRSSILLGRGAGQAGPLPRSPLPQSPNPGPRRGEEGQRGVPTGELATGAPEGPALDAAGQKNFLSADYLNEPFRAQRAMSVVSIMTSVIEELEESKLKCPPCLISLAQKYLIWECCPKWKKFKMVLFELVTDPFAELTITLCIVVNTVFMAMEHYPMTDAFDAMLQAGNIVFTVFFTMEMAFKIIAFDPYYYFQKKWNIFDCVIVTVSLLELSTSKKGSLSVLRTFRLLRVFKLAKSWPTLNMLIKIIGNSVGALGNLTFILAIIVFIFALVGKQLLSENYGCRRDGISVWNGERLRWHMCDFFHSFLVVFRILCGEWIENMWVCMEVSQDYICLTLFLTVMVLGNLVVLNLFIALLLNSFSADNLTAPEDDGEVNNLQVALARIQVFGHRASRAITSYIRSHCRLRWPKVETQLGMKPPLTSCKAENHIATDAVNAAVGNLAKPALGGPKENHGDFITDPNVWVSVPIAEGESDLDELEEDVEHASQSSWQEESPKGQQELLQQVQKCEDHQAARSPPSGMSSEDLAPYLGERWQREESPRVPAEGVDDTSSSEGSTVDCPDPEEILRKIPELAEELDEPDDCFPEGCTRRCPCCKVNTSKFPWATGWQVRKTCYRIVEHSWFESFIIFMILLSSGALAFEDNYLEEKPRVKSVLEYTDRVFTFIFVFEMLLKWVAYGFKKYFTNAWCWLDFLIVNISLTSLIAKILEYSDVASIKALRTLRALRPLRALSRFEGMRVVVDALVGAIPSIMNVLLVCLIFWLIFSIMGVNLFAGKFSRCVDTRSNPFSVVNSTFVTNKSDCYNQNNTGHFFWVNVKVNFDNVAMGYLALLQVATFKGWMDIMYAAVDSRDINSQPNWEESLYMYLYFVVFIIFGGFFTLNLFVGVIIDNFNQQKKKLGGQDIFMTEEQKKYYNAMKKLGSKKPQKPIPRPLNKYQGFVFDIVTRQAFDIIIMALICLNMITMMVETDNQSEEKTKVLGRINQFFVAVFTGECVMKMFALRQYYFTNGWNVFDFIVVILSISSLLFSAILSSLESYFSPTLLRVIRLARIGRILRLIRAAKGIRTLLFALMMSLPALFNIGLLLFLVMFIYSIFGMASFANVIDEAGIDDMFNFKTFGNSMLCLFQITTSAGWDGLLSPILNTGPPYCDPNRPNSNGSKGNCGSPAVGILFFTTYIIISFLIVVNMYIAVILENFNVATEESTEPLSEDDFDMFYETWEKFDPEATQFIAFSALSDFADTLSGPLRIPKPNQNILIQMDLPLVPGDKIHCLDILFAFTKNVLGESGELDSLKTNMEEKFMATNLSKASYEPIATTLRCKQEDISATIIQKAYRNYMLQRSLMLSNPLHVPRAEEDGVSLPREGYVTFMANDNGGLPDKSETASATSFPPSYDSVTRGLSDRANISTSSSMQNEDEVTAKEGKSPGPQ", "assay": "Inhibition of TTX-resistant Nav1.8 in mouse dorsal root ganglion neuron by voltage clamp recording", "format": "tissue-based, DRG neuron"}, "Cytochrome P450 1A2": {"molecular_target": "T1, Cytochrome P450 1A2 (Homo sapiens, UniProt P05177)", "T1 sequence (P05177 whole entry)": "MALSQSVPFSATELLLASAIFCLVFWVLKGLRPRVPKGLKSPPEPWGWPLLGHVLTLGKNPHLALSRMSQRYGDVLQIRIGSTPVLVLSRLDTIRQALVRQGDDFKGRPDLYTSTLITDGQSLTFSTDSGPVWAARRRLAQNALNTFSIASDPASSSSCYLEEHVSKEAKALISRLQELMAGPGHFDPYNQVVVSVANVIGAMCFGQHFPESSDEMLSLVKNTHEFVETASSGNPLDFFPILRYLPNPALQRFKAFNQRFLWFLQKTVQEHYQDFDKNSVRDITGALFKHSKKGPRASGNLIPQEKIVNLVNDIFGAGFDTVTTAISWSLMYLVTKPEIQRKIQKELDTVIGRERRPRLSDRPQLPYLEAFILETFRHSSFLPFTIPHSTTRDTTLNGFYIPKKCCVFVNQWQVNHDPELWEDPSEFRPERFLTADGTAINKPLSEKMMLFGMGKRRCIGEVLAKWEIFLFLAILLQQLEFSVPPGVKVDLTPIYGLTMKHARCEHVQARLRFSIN", "assay": "Inhibition of CYP1A2 (unknown origin)", "format": "ADME"}, "[2]": {"assay": "Half-life in Sprague-Dawley rat at 1 mg/kg, iv", "format": "ADME, organism-based", "details": "in vivo"}, "Mus musculus [3]": {"system": "Mus musculus", "assay": "Antinociceptive activity against aconitine-induced pain in FVB mouse model expressing human Nav 1.7 I848T mutant assessed as reduction in nociceptive behavior at 1 mg/kg, po administered 120 mins prior to aconitine administration and measured after 70 mins relative to control", "format": "functional", "parameters": "scale not given: the % may be the effect or the level left", "details": "time 190 min, 3.167 h"}, "[4]": {"system": "mouse breast cancer resistant protein (Bcrp)", "assay": "Efflux ratio of apparent permeability across basolateral to apical side over apical to basolateral side MDCK-II cells expressing mouse breast cancer resistant protein", "format": "ADME, cell-based, Canis lupus familiaris", "details": "dog"}, "[5]": {"assay": "AUC in Beagle dog at 1 mg/kg, po", "format": "ADME, organism-based, Canis lupus familiaris", "parameters": "dose 1 mg/kg, route po", "details": "in vivo"}, "[6]": {"assay": "Efflux ratio of apparent permeability across basolateral to apical side over apical to basolateral side in MDCK1 cells", "format": "ADME, cell-based, Canis lupus familiaris", "details": "dog, MDCK"}, "[7]": {"molecular_target": "Sodium channel protein type 5 subunit alpha (Homo sapiens, UniProt Q14524)", "assay": "Inhibition of human Nav1.5 alpha subunit expressed in HEK293 cells co-expressing beta1 subunit at -60 mV holding potential by PatchXpress automated voltage clamp electrophysiology technique", "format": "cell-based"}, "Cytochrome P450 2C19": {"molecular_target": "Cytochrome P450 2C19 (Homo sapiens, UniProt P33261)", "sequence (P33261 whole entry)": "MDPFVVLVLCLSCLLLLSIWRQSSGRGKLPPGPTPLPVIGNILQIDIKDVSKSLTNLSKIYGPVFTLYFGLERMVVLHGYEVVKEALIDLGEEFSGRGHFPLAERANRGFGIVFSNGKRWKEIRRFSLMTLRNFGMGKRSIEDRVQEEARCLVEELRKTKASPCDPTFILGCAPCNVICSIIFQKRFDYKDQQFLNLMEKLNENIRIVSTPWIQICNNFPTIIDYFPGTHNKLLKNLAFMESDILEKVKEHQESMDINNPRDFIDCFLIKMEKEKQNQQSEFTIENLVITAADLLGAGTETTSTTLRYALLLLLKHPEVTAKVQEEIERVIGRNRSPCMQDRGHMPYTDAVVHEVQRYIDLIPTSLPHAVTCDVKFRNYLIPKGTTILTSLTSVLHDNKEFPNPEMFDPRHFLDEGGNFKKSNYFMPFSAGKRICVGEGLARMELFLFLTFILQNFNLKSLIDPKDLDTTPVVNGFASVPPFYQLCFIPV", "assay": "Inhibition of CYP2C19 (unknown origin)", "format": "ADME"}, "Mus musculus [8]": {"system": "Mus musculus", "assay": "Antinociceptive activity against aconitine-induced pain in FVB mouse model expressing human Nav 1.7 I848T mutant assessed as reduction in nociceptive behavior at 10 mg/kg, po administered 120 mins prior to aconitine administration and measured after 70 mins relative to control", "format": "functional", "parameters": "scale not given: the % may be the effect or the level left", "details": "time 190 min, 3.167 h"}, "[9]": {"assay": "Protein binding in mouse plasma", "format": "ADME, cell-free", "details": "read-out: PPB (converted)"}, "[10]": {"molecular_target": "Sodium channel protein type 9 subunit alpha (Rattus norvegicus, UniProt O08562)", "assay": "Inhibition of rat Nav1.7 at -60 mV holding potential by PatchXpress automated voltage clamp electrophysiology technique"}, "[11]": {"assay": "Oral bioavailability in Sprague-Dawley rat at 5 mg/kg", "format": "ADME, organism-based", "details": "in vivo"}, "[12]": {"assay": "Apparent permeability from apical to basolateral side in MDCK1 cells", "format": "ADME, cell-based, Canis lupus familiaris", "details": "dog, MDCK"}, "[13]": {"assay": "Half-life in FVB mouse at 30 mg/kg, po", "format": "ADME, organism-based", "details": "in vivo"}, "Mus musculus [14]": {"system": "Mus musculus", "assay": "Antinociceptive activity against aconitine-induced pain in FVB mouse model expressing human Nav 1.7 I848T mutant assessed as reduction in nociceptive behavior at 3 mg/kg, po administered 120 mins prior to aconitine administration and measured after 70 mins relative to control", "format": "functional", "parameters": "scale not given: the % may be the effect or the level left", "details": "time 190 min, 3.167 h"}, "[15]": {"assay": "Unbound plasma concentration in FVB mouse model of aconitine-induced pain expressing human Nav1.7 I848T mutant at 0.3 mg/kg, po administered 120 mins prior to aconitine administration and measured after 70 mins by UPLC-ESI MS/MS analysis", "format": "ADME, organism-based", "details": "in vivo, 3.167 h, time 190 min"}, "[16]": {"molecular_target": "Sodium channel protein type 1 subunit alpha (Homo sapiens, UniProt P35498)", "assay": "Inhibition of human Nav1.1 alpha subunit expressed in HEK293 cells co-expressing beta1 subunit at -40 mV holding potential by PatchXpress automated voltage clamp electrophysiology technique", "format": "cell-based"}, "[17]": {"assay": "Oral bioavailability in Beagle dog at 1 mg/kg", "format": "ADME, organism-based, Canis lupus familiaris", "details": "in vivo"}, "[18]": {"assay": "Lipophilicity, logD of the compound at pH 7.4", "format": "physicochemical", "details": "buffer, read-out: logD"}, "Cytochrome P450 2D6": {"molecular_target": "Cytochrome P450 2D6 (Homo sapiens, UniProt P10635)", "assay": "Inhibition of CYP2D6 (unknown origin)", "format": "ADME"}, "[19]": {"assay": "Drug concentration in plasma of FVB mouse model of aconitine-induced pain expressing human Nav1.7 I848T mutant at 10 mg/kg, po administered 120 mins prior to aconitine administered and measured after 70 mins by UPLC-ESI MS/MS analysis", "format": "ADME, organism-based", "details": "time 190 min"}, "[20]": {"assay": "Half-life in Beagle dog at 0.5 mg/kg, iv", "format": "ADME, organism-based, Canis lupus familiaris", "details": "in vivo"}, "Cytochrome P450 2C9": {"molecular_target": "Cytochrome P450 2C9 (Homo sapiens, UniProt P11712)", "sequence (P11712 whole entry)": "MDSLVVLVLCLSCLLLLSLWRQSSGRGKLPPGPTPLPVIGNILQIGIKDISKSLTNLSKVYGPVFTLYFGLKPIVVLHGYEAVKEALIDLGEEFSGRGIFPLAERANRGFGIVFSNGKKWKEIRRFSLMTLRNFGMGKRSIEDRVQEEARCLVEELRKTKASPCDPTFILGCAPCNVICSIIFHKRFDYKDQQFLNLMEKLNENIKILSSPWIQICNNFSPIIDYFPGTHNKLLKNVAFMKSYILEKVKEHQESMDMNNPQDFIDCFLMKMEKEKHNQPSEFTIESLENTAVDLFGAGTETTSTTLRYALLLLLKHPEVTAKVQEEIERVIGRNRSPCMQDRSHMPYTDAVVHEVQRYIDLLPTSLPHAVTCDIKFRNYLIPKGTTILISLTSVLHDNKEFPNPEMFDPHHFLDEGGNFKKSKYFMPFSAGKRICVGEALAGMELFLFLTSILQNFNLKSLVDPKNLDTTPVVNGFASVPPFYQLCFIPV", "assay": "Inhibition of CYP2C9 (unknown origin)", "format": "ADME"}, "[21]": {"molecular_target": "Sodium channel protein type 9 subunit alpha (Homo sapiens, UniProt Q15858)", "sequence (Q15858 whole entry)": "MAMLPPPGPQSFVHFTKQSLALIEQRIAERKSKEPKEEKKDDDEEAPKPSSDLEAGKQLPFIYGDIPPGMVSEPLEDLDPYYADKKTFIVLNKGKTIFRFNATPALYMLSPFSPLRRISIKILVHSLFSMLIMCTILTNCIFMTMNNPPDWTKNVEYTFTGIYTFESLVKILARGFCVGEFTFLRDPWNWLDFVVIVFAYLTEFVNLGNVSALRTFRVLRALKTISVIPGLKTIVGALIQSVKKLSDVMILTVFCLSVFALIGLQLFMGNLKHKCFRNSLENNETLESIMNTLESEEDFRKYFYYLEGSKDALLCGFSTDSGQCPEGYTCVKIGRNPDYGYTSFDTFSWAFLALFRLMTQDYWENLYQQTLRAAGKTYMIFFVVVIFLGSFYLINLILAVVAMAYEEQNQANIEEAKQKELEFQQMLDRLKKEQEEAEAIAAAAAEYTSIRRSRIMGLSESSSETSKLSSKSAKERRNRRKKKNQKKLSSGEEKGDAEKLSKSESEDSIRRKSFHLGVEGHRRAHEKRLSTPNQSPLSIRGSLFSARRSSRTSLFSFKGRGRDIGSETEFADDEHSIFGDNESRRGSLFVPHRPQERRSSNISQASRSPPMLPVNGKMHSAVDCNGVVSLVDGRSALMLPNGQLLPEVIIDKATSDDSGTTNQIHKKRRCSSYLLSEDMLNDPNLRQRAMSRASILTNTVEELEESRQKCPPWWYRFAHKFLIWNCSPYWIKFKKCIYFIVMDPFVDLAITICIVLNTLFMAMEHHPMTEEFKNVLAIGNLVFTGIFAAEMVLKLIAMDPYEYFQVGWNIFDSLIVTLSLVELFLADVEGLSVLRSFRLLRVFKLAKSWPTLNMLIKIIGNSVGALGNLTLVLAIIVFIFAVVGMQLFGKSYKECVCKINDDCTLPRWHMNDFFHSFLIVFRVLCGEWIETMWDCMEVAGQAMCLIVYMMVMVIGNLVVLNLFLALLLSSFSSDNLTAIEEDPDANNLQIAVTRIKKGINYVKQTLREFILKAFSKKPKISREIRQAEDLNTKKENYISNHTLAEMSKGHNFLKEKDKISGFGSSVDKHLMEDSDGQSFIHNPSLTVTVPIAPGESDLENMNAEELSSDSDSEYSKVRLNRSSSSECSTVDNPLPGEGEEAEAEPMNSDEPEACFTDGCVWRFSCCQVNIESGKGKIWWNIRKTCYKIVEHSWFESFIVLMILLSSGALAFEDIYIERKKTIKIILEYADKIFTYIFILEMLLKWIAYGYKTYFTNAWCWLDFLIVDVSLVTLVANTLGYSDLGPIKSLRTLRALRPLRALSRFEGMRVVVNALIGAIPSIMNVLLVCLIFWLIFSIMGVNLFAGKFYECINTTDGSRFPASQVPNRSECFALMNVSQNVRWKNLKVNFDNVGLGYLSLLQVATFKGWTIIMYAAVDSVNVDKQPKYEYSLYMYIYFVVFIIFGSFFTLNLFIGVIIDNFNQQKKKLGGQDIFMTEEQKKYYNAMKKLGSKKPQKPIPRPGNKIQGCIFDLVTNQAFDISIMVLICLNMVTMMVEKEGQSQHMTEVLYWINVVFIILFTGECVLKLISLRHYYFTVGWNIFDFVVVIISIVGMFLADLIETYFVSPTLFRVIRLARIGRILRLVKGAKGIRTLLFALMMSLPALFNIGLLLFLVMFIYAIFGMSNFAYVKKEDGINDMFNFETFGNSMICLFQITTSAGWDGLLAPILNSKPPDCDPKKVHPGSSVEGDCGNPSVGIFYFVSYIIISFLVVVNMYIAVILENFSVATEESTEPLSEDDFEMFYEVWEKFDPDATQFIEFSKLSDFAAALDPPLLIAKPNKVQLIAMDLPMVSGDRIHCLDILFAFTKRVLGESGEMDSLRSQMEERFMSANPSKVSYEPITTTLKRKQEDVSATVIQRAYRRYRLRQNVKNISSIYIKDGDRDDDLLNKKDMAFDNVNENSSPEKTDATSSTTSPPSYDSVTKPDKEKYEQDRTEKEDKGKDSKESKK", "assay": "Inhibition of human Nav1.7 alpha subunit expressed in HEK293 cells co-expressing beta1 subunit at -60 mV holding potential by whole-cell patch voltage clamp electrophysiology recording", "format": "cell-based"}}}
{"compound": "CC1(COc2cc(F)c(C(=O)NS(=O)(=O)C3CC3)cc2C2CC2)CCC2(CC1)CC2", "values": [{"measurement": "IC50", "setting": "[1]", "value": "> 10000", "unit": "nM"}, {"measurement": "IC50", "setting": "Cytochrome P450 1A2", "value": "> 10000", "unit": "nM"}, {"measurement": "half-life", "setting": "[2]", "value": 8.1, "unit": "h"}, {"measurement": "Activity", "setting": "Mus musculus [3]", "value": 86, "unit": "%"}, {"measurement": "efflux ratio", "setting": "[4]", "value": 2.1}, {"measurement": "AUC", "setting": "[5]", "value": 83, "unit": "µM·h"}, {"measurement": "efflux ratio", "setting": "[6]", "value": 1}, {"measurement": "IC50", "setting": "[7]", "value": 50, "unit": "nM"}, {"measurement": "IC50", "setting": "Cytochrome P450 2C19", "value": "> 10000", "unit": "nM"}, {"measurement": "Activity", "setting": "Mus musculus [8]", "value": 99.5, "unit": "%"}, {"measurement": "fraction unbound", "setting": "[9]", "value": 0.001}, {"measurement": "IC50", "setting": "[10]", "value": 3.7, "unit": "nM"}, {"measurement": "bioavailability", "setting": "[11]", "value": 49, "unit": "%"}, {"measurement": "Papp A→B", "setting": "[12]", "value": 9, "unit": "×10⁻⁶ cm/s"}, {"measurement": "half-life", "setting": "[13]", "value": 9.2, "unit": "h"}, {"measurement": "Activity", "setting": "Mus musculus [14]", "value": 98, "unit": "%"}, {"measurement": "Cp(f)", "setting": "[15]", "value": 0.003, "unit": "µM"}, {"measurement": "IC50", "setting": "[16]", "value": 6, "unit": "nM"}, {"measurement": "bioavailability", "setting": "[17]", "value": 68, "unit": "%"}, {"measurement": "logD", "setting": "[18]", "value": 2.1}, {"measurement": "IC50", "setting": "Cytochrome P450 2D6", "value": "> 10000", "unit": "nM"}, {"measurement": "concentration at 3.167 h", "setting": "[19]", "value": 79, "unit": "µM"}, {"measurement": "half-life", "setting": "[20]", "value": 5.4, "unit": "h"}, {"measurement": "IC50", "setting": "Cytochrome P450 2C9", "value": 6100, "unit": "nM"}, {"measurement": "IC50", "setting": "[21]", "value": 0.6, "unit": "nM"}]}
